In EP0745595A1, “3-(3-Aryloxyphenyl)-1-(substituted methyl)-s-triazine-2,4,6-oxo or thiotrione herbicidal agents” (American Cyanamid Company, priority 1995, dated 1996):

Key:
Format in all cases: in vivo
[1] = tested on: CHENOPODIUM ALBUM, L.; test: Preemergence herbicidal evaluation, CHEAL (Lambsquarters, Common); conditions: rated four to five weeks after treatment
Procedure, shortened: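 Seeds sown in potting soil cups, then sprayed preemergence with aqueous acetone compound solution at about 0.125 to 0.50 kg per hectare. Greenhouse-grown, rated 4–5 weeks after treatment on a 0–9 visual scale against control.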

[2] = tested on: ECHINOCHLOA CRUS-GALLI, (L) BEAU; test: Preemergence herbicidal evaluation, ECHCG (Barnyardgrass); conditions: rated four to five weeks after treatment
Excerpt: (§1) Results of herbicide evaluation are expressed on a rating scale (0-9). The scale is based upon a visual observation of plant stand, vigor, malformation, size, chlorosis and overall plant appearance as compared with a control.
(§2) The preemergence herbicidal activity of the test compounds of the present invention is exemplified by the following tests in which the seeds of a variety of monocotyledonous and dicotyledonous plants are separately mixed with potting soil and planted on top of approximately one inch of soil in separate pint cups. […] The treated cups are then placed on greenhouse benches, watered and cared for in accordance with conventional greenhouse procedures. From four to five weeks after treatment, the tests are terminated and each cup is examined and rated according to the rating system provided in Example 40.
(§3) The compounds evaluated are reported by compound number given in Example 40.

[3] = tested on: ORYZA SATIVA, L. TEBONNET; test: Rice tolerance to post-transplant applications under flooded paddy conditions, ORYSAT (Rice, Tebonnet); conditions: post-transplant rice, 3-4 weeks after treatment
Procedure, shortened: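 Post-transplant paddy test: compound applied 3 d after transplanting to flooded soil (1.5-3 cm water), ~0.063-0.5 kg/ha a.i., 50/50 aq/acetone. Silt loam, 2 × 10-d seedlings/pot. Greenhouse 3-4 wk, visual 0-9 score vs control.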

[4] = tested on: ECHINOCHLOA ORYZOIDES (ARD.)FRITSCH; test: Preemergence weed control under flooded paddy conditions, ECHORC (Watergrass (Calif.)); conditions: preemergence, 3-4 weeks after treatment
Procedure, shortened: (§4)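 Flooded paddy preemergence test: seeds/propagating organs in top 0.5 cm silt loam, water held 1.5-3 cm above soil. Dosing by pipette into flood water, aqueous/acetone 50/50 v/v, ~0.5, 0.25, 0.125, 0.063 kg/ha a.i. Greenhouse; read at 3-4 wk, 0-9 visual scale.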

[5] = tested on: ZEA MAYS L.; test: Preemergence herbicidal evaluation, ZEAMX (Corn, Field); conditions: rated four to five weeks after treatment
Excerpt: as §1, §2, §3

[6] = tested on: GALIUM APARINE; test: Preemergence herbicidal evaluation, GALAP (Galium); conditions: rated four to five weeks after treatment
Excerpt: as §1, §2, §3

[7] = tested on: ABUTILON THEOPHRASTI, MEDIC.; test: Postemergence herbicidal evaluation, ABUTH (Velvetleaf); conditions: rated four to five weeks after treatment, averaged
Procedure, shortened: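 Velvetleaf (Abutilon theophrasti) seedlings were raised in jiffy flats for about two weeks and then sprayed postemergence. The test compound was dispersed in a 50/50 acetone/water mixture containing 0.5% TWEEN®20 and applied through a nozzle operating at 40 psi. Plants were kept on greenhouse benches and rated 0-9 four to five weeks after treatment.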

[8] = tested on: […], PRESL.; test: Preemergence weed control under flooded paddy conditions, MOOVA (Monochoria); conditions: preemergence, 3-4 weeks after treatment
Procedure, shortened: as §4

[9] = tested on: CASSIA OBTUSIFOLIA, L.; test: Preemergence herbicidal evaluation, CASOB (Sicklepod); conditions: Rate 0.500 kg/ha, rated four to five weeks after treatment
Excerpt: as §1, §2, §3

[10] = tested on: SAGITTARIA PYGMAEA, L.; test: Preemergence weed control under flooded paddy conditions, SAGPY (Arrowhead (Pygmaea)); conditions: preemergence, 3-4 weeks after treatment
Procedure, shortened: as §4

[11] = tested on: CYPERUS SEROTINUS, ROTTB.; test: Preemergence weed control under flooded paddy conditions, CYPSE (Flatsedge); conditions: preemergence, 3-4 weeks after treatment
Procedure, shortened: as §4

[12] = tested on: GLYCINE MAX(L) MERR. CV. WILLIAMS; test: Postemergence herbicidal evaluation, GLXMAW (Soybean, Williams); conditions: crop, rated four to five weeks after treatment, averaged
Procedure, shortened: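 Soybean seedlings (Williams) were raised in jiffy flats for roughly two weeks, then sprayed postemergence through a nozzle at 40 psi with test compound dispersed in 50/50 acetone/water containing 0.5% TWEEN®20. Treated plants were kept on greenhouse benches under normal care and visually rated on a 0-9 scale four to five weeks later.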

[13] = tested on: SETARIA VIRIDIS, (L) BEAU; test: Postemergence herbicidal evaluation, SETVI (Foxtail, Green); conditions: rated four to five weeks after treatment, averaged
Procedure, shortened: (§5)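 Visual 0–9 scores reflect stand, vigor, malformation, size, chlorosis and overall appearance relative to control, taken 4–5 weeks after spraying two-week-old seedlings with about 0.125–0.500 kg/ha compound in acetone/water/TWEEN 20.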

[14] = tested on: CYPERUS IRIA; test: Preemergence weed control under flooded paddy conditions, CYPIR (Rice Flatsedge); conditions: 0.500 kg/ha, preemergence, 3-4 weeks after treatment
Protocol: as §1
Preemergence herbicidal activity under flooded paddy conditions is determined as follows: plant seeds or propagating organs are planted in the top 0.5 cm of silt loam soil in 32 oz. plastic containers with a diameter of 10.5 cm and no drainage holes. Water is added to these containers and maintained at 1.5 to 3 cm above the soil surface for the duration of the experiment. […] The treated containers are placed on greenhouse benches and cared for according to normal greenhouse procedures.- Three to four weeks after treatment the test is terminated and each container is examined and herbicidal effect rated according to the rating system provided in Example 40. The compounds evaluated are reported by compound number given in Example 40.
Plant species employed in this example are reported by header abbreviation, common name and scientific name.

[15] = tested on: GALIUM APARINE; test: Postemergence herbicidal evaluation, GALAP (Galium); conditions: rated four to five weeks after treatment, averaged
Procedure, shortened: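 Galium (GALAP) seedlings were raised in jiffy flats for about two weeks, then sprayed with test compounds dispersed in 50/50 acetone/water containing 0.5% TWEEN®20, delivered through a nozzle at 40 psi. Plants were kept on greenhouse benches and visually rated 0-9 against a control four to five weeks later; repeat tests were averaged.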

[16] = tested on: ECHINOCHLOA CRUS-GALLI, (L) BEAU; test: Postemergence herbicidal evaluation, ECHCG (Barnyardgrass); conditions: rated four to five weeks after treatment, averaged
Procedure, shortened: as §5

Compound | Herbicidal effect rating, ORYSAT ([3]; 0.125 kg/ha) | Herbicidal effect rating, ORYSAT ([3]; 0.250 kg/ha) | Herbicidal effect rating, ORYSAT ([3]; 0.500 kg/ha) | Herbicidal effect rating, ECHORC ([4]; 0.500 kg/ha) | GALAP herbicidal rating ([6]; Rate 0.500 kg/ha) | Herbicidal effect rating, MOOVA ([8]; 0.500 kg/ha) | CASOB herbicidal rating [9] | Herbicidal effect rating, SAGPY ([10]; 0.063 kg/ha) | Herbicidal effect rating, SAGPY ([10]; 0.125 kg/ha) | Herbicidal effect rating, SAGPY ([10]; 0.250 kg/ha) | Herbicidal effect rating, SAGPY ([10]; 0.500 kg/ha) | Herbicidal effect rating, ORYSAT ([3]; 0.063 kg/ha) | Herbicidal effect rating, CYPSE ([11]; 0.063 kg/ha) | Herbicidal effect rating, CYPSE ([11]; 0.125 kg/ha) | Herbicidal effect rating, CYPSE ([11]; 0.250 kg/ha) | Herbicidal effect rating, CYPSE ([11]; 0.500 kg/ha) | also measured
Cn1c(=O)n(CC(=O)OC(C)(C)C)c(=O)n(-c2cc(Oc3c(F)cc(C(F)(F)F)cc3Cl)ccc2[N+](=O)[O-])c1=O [Compound 17, Tert-butyl 3-{5-[(2-chloro-α,α,α,6-tetra-fluoro-p-tolyl)oxy]-2-nitrophenyl}tetra-hydro-5-methyl-2,4,6-trioxo-s-triazine-1(2H)-acetate] | 3.0 | 3.0 | 2.0 | 9.0 | 9.0 | 9.0 | – | – | – | – | – | – | – | – | – | – | CHEAL herbicidal rating ([1]; Rate 0.125 kg/ha): 9.0; CHEAL herbicidal rating ([1]; Rate 0.250 kg/ha): 9.0; CHEAL herbicidal rating ([1]; Rate 0.500 kg/ha): 9.0; ECHCG herbicidal rating ([2]; Rate 0.125 kg/ha): 0.0; ECHCG herbicidal rating ([2]; Rate 0.250 kg/ha): 0.0; ECHCG herbicidal rating ([2]; Rate 0.500 kg/ha): 0.0; Herbicidal effect rating, ECHORC ([4]; 0.125 kg/ha): 9.0; Herbicidal effect rating, ECHORC ([4]; 0.250 kg/ha): 9.0; ZEAMX herbicidal rating ([5]; Rate 0.125 kg/ha): 0.0; ZEAMX herbicidal rating ([5]; Rate 0.250 kg/ha): 0.0; ZEAMX herbicidal rating ([5]; Rate 0.500 kg/ha): 0.0; GALAP herbicidal rating ([6]; Rate 0.125 kg/ha): 9.0; GALAP herbicidal rating ([6]; Rate 0.250 kg/ha): 9.0; ABUTH, herbicide rating (0-9) ([7]; Rate 0.125 kg/ha): 9.0; ABUTH, herbicide rating (0-9) ([7]; Rate 0.250 kg/ha): 9.0; ABUTH, herbicide rating (0-9) ([7]; Rate 0.500 kg/ha): 9.0; Herbicidal effect rating, MOOVA ([8]; 0.125 kg/ha): 9.0; Herbicidal effect rating, MOOVA ([8]; 0.250 kg/ha): 9.0
COC(=O)Cn1c(=O)n(C)c(=O)n(-c2cc(Oc3ccc(F)cc3C(F)(F)F)ccc2[N+](=O)[O-])c1=O [Compound 21] | 0.0 | 0.0 | 0.5 | – | 9.0 | – | 7.0 | 0.0 | 0.0 | 0.0 | 0.0 | 0.0 | 0.0 | 0.0 | 0.0 | 0.0 | GLXMAW, herbicide rating (0-9) ([12]; Rate 0.125 kg/ha): 4.0; GLXMAW, herbicide rating (0-9) ([12]; Rate 0.250 kg/ha): 4.0; GLXMAW, herbicide rating (0-9) ([12]; Rate 0.500 kg/ha): 4.0
COC(=O)Cn1c(=O)n(C)c(=O)n(-c2cc(Oc3cccc(Cl)c3Cl)ccc2[N+](=O)[O-])c1=O [Compound 22, Methyl 3-[5-(2,3-dichlorophenoxy)-2-nitrophenyl]tetrahydro-5-methyl-2,4,6-trioxo-s-triazine-1(2H)-acetate] | 0.0 | 0.0 | 2.0 | – | 0.0 | – | 3.0 | 0.0 | 0.0 | 0.0 | 0.0 | 0.0 | 0.0 | 0.0 | 0.0 | 0.0 | –
COC(=O)Cn1c(=O)n(C)c(=O)n(-c2cc(Oc3ccc([N+](=O)[O-])cc3F)ccc2[N+](=O)[O-])c1=O [Compound 24, Methyl 3-[5-(2-fluoro-4-nitrophenoxy)-2-nitrophenyl]tetrahydro-5-methyl-2,4,6-trioxo-s-triazine-1(2H)-acetate] | – | – | 0.0 | 0.0 | 0.0 | 0.0 | 0.0 | – | – | – | 0.0 | – | – | – | – | 0.0 | SETVI, herbicide rating (0-9) ([13]; Rate 0.125 kg/ha): 0.0; SETVI, herbicide rating (0-9) ([13]; Rate 0.250 kg/ha): 0.0; SETVI, herbicide rating (0-9) ([13]; Rate 0.500 kg/ha): 0.0; Herbicidal effect rating, CYPIR [14]: 0.0; GALAP, herbicide rating (0-9) ([15]; Rate 0.125 kg/ha): 2.0; GALAP, herbicide rating (0-9) ([15]; Rate 0.250 kg/ha): 2.0; GALAP, herbicide rating (0-9) ([15]; Rate 0.500 kg/ha): 2.0; ECHCG, herbicide rating (0-9) ([16]; Rate 0.125 kg/ha): 0.0; ECHCG, herbicide rating (0-9) ([16]; Rate 0.250 kg/ha): 0.0; ECHCG, herbicide rating (0-9) ([16]; Rate 0.500 kg/ha): 0.0
COC(=O)Cn1c(=O)n(C)c(=O)n(-c2cc(Oc3ccc(F)c(F)c3F)ccc2[N+](=O)[O-])c1=O [Compound 27, Methyl tetrahydro-3-methyl-5-[2-nitro-5-(2,3,4-trifluorophenoxy)phenyl]-2,4,6-trioxo-s-triazine-1(2H)-acetate] | 1.0 | 2.0 | 1.5 | – | 8.0 | – | 0.0 | 0.0 | 0.0 | 0.0 | 0.0 | 0.0 | 0.0 | 0.0 | 0.0 | 0.0 | –
